# Laboratory results: patent US4474790A, “Thioalkylamide of nicotinic acid 1-oxide, its salts, and pharmaceutical compositions” (SANOFI, priority 1981, dated 1984)
# Assays:
# [1] = target: T1, cardiac histamine H2 receptor (Cavia porcellus, UniProt P47747); settings: concentration inhibiting by 50% the increase in frequency induced by histamine; isolated right atrium of the Guinea pig; CM 57755 as dihydrochloride
# T1 construct: isolated right atrium of the Guinea pig; from tissue; host or cells: isolated guinea pig right atrium
# T1 sequence (P47747 whole entry): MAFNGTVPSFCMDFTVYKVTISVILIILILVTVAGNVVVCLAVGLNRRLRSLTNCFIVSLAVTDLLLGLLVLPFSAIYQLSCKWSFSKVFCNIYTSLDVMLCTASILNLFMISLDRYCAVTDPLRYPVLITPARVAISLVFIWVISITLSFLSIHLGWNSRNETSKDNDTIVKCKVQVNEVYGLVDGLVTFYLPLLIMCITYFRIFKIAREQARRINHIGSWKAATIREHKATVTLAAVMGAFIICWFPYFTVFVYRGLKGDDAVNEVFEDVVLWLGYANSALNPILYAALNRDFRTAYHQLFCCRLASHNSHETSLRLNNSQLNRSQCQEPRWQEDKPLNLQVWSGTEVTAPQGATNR
# [2] = test system: gastric histamine H2 receptors; test: antisecretory activity: antagonism to the hypersecretion provoked by histamine in the rat (Ghosh and Schild); format: in vivo; settings: intravenous route, histamine infusion equivalent to 15 mcmol/kg/hour
# Source text: The antagonistic activity of the products of the present invention towards the gastric histamine H2 receptors was confirmed in the test of the antisecretory activity based on the antagonism to the hypersecretion provoked by histamine in the rat according to the method of Ghosh and Schild (Brit. J. Pharmacol.1958; 13, 54). According to this test, a gastric acid hypersecretion is induced by intravenous infusion of a submaximal dose equivalent to 15 mcmol/kg/hour and the gastric secretion is measured by perfusion of a physiological solution at a constant speed in the stomach of the animal.
# [3] = target: T2, gastric histamine H2 receptor (Cavia porcellus, UniProt P47747); design: species or system guinea pig; settings: for IC50: concentration inhibiting by 50% the secretion induced by histamine, isolated stomach mucous membrane of the Guinea pig, CM 57755 as dihydrochloride; for IC50 m/IC50 o: ratio gastric IC50 / cardiac IC50
# T2 construct: isolated stomach mucous membrane of the Guinea pig; from tissue; host or cells: isolated guinea pig stomach mucous membrane
# T2 sequence (P47747 whole entry): as above
# [4] = acute toxicity (LD50) in the rat; settings: in vivo, intravenous route
# [5] = test system: hypersecretion provoked by the dimaprit; test: antisecretory activity in the cat having a gastric fistula, dimaprit as hypersecretor (Emas et al.); format: in vivo; settings: dimaprit 640 mcg/kg/hour
# Method: The antisecretory activity of the products of the present invention was assessed in the cat having a gastric fistula according to the method of Emas et al.(Gastroenterology, 1969; 39, 771) using, as hypersecretor, dimaprit at the dose of 640 mcg/kg/hour.
# [6] = test system: cardiac H2 receptors; settings: treatment of ulcerous disease; Clinica Terapeutica, 1981, 96, 81-91; cited from earlier work
SMILES,IC50 [1],dose inhibiting by 50% the hypersecretion provoked by histamine [2],IC50 [3],affinity for the gastric H2 receptors versus the cardiac H2 receptors ([3]; conclusion from the IC50 m/IC50 o ratio),"selectivity of antagonising gastric hypersecretion versus the positive chronotropic action provoked by histamine ([3]; conclusion from the IC50 m/IC50 o ratio, relative to the reference compounds)",IC50 m/IC50 o [3],LD50 [4],duration of action after the suspension of the treatment [5],activity compared with that of cimetidine ([5]; on molar basis),antagonism of the hypersecretion provoked by the dimaprit ([5]; venous perfusion and intragastric route),secondary effects (block of the cardiac H2 receptors may be the cause) [6]
"CN(C)Cc1ccc(CSCCNC(=O)c2ccc[n+]([O-])c2)o1.Cl.Cl [CM 57755, N-[2-(5-dimethylaminomethylfuran-2-ylmethylthio)ethyl]-3-pyridinecarboxamide 1-oxide dihydrochloride]",4300 nM,0.9 mg/kg,9200 nM,greater affinity for the gastric H2 receptors than for the cardiac H2 receptors,capable of antagonising gastric hypersecretion more selectively than the positive chronotropic action provoked by histamine,2.13,300 mg/kg,long duration of action after the suspension of the treatment,"comparable, on molar basis, to that of the cimetidine",antagonises in dose-dependent manner,–
"CNC(=NC#N)NCCSCc1nc[nH]c1C [cimetidine, 2-cyano-1-methyl-3-[2[(5-methylimidazol-4-yl)methylthio]ethyl]guanidine, reference compound]",–,–,–,–,–,–,–,more transient,–,–,bradycardia and of asystolia
"CNC(=C[N+](=O)[O-])NCCSCc1ccc(CN(C)C)o1 [ranitidine, reference compound]",86 nM,–,650 nM,–,–,7.6,–,–,–,–,–
